Measured values reported in ChEMBL document CHEMBL1137621, “3-Nitro-4-amino benzoic acids and 6-amino nicotinic acids are highly selective agonists of GPR109b” (Bioorg Med Chem Lett, 2007).
The source made the active and inactive calls. The calls are words filed in the database; no cut-off is given here.

Experiments:
[1] = biological target: T1, Hydroxycarboxylic acid receptor 2 (Homo sapiens, UniProt Q8TDS4); assay: Agonist activity at human GPR109a receptor transfected in CHOK1 cells at 30 uM assessed as reversal of forskolin induced cAMP elevating effect by whole cell assay; type: functional, cell-based; settings: CHO-K1
[2] = biological target: Hydroxycarboxylic acid receptor 3 (Homo sapiens, UniProt P49019); assay: Agonist activity at human GPR109b receptor transfected in CHOK1 cells assessed as reversal of forskolin-induced cAMP elevating effect by whole cell assay; type: functional, cell-based, CHO-K1
[3] = biological target: T1, Hydroxycarboxylic acid receptor 2; assay: Agonist activity at human GPR109a receptor transfected in CHOK1 cells assessed as reversal of forskolin induced cAMP elevating effect by whole cell assay; type: functional, cell-based, CHO-K1

T1 sequence (Q8TDS4 whole entry): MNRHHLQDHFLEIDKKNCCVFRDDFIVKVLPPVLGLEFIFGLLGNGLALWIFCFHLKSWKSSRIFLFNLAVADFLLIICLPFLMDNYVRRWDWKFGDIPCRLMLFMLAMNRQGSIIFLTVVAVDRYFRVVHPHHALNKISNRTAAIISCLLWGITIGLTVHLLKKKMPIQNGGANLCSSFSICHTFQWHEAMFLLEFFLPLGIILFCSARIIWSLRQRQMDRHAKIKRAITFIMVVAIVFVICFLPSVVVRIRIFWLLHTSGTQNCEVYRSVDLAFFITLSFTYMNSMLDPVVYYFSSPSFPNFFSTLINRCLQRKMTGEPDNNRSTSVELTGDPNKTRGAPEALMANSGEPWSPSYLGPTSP
Sequence of Hydroxycarboxylic acid receptor 3 (P49019 whole entry): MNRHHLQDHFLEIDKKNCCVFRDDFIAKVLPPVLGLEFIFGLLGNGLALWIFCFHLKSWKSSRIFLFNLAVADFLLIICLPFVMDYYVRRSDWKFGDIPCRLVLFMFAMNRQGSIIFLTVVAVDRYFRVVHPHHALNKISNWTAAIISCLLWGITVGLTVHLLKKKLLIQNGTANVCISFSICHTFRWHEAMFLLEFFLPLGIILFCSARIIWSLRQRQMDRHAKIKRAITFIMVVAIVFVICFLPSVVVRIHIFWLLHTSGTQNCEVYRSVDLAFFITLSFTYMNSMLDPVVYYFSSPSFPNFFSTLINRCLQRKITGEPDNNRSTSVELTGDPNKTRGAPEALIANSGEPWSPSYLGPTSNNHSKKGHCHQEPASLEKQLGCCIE

Row | SMILES | Activity [1] | EC50 [2] | EC50 [3] | Activity ([2]; CHO-K1)
1 | CNc1ccc(C(=O)O)cc1[N+](=O)[O-] | inactive | 1910 nM |  | 
2 | CCC(C)Nc1ccc(C(=O)O)cc1[N+](=O)[O-] (centres undefined) | inactive | 151 nM |  | 
3 | O=C(O)c1ccc(Nc2ccccc2)nc1 | inactive | 3240 nM |  | 
4 | CCCCNc1ccc(C(=O)O)cn1 | inactive | 100 nM |  | 
5 | O=C(O)c1ccc(NC(=O)c2ccccc2)c([N+](=O)[O-])c1 | inactive | 3090 nM |  | 
6 | CCCN(C)c1ccc(C(=O)O)cn1 | inactive | 1620 nM |  | 
7 | O=C(O)c1ccc(NC2CC2)nc1 | inactive | 324 nM |  | 
8 | CC(C)C(C)Nc1ccc(C(=O)O)cn1 (centres undefined) | inactive | 1320 nM |  | 
9 | COCCNc1ccc(C(=O)O)cn1 | inactive | 933 nM |  | 
10 | CCC(CC)Nc1ccc(C(=O)O)cc1[N+](=O)[O-] | inactive | 57.5 nM |  | 
11 | CCC(CC)Nc1ccc(C(=O)O)cn1 |  | 269 nM | 20 µM | 
12 | CC(C)Nc1ccc(C(=O)O)cc1[N+](=O)[O-] | inactive | 257 nM |  | 
13 | CCNc1ccc(C(=O)O)cn1 | inactive | 398 nM |  | 
14 | O=C(O)c1ccc(Nc2ccccc2)c([N+](=O)[O-])c1 | inactive | 2450 nM |  | 
15 | CCCNc1ccc(C(=O)O)cc1[N+](=O)[O-] | inactive | 29.5 nM |  | 
16 | CCCN(CCC)c1ccc(C(=O)O)cc1[N+](=O)[O-] | inactive | 120 nM |  | 
17 | CN(C)c1ccc(C(=O)O)cn1 | inactive | > 10000 nM |  | 
18 | O=C(O)c1ccc(NC(=O)c2ccccc2)nc1 | inactive | 1580 nM |  | 
19 | O=C(O)c1ccc(NC2CCC2)c([N+](=O)[O-])c1 | inactive | 200 nM |  | 
20 | O=C(O)c1ccc(NCC2CCCO2)nc1 (centres undefined) | inactive | 603 nM |  | 
21 | CCCCNc1ccc(C(=O)O)cc1[N+](=O)[O-] | inactive | 158 nM |  | 
22 | CC(C)C(C)Nc1ccc(C(=O)O)cc1[N+](=O)[O-] (centres undefined) | inactive | 363 nM |  | 
23 | CCN(CC)c1ccc(C(=O)O)cn1 | inactive | > 10000 nM |  | 
24 | CCCCCNc1ccc(C(=O)O)cc1[N+](=O)[O-] | inactive | 282 nM |  | 
25 | CCC(C)Nc1ccc(C(=O)O)cn1 (centres undefined) | inactive | 380 nM |  | 
26 | CCCN(CCC)c1ccc(C(=O)O)cn1 | inactive | 6310 nM |  | 
27 | CCN(CC)c1ccc(C(=O)O)cc1[N+](=O)[O-] | inactive | 631 nM |  | 
28 | CC(C)Nc1ccc(C(=O)O)cn1 | inactive | 603 nM |  | 
29 | CCCN(C)c1ccc(C(=O)O)cc1[N+](=O)[O-] | inactive | 52.5 nM |  | 
30 | O=C(O)c1ccc(N2CCCC2)nc1 | inactive |  |  | inactive

More lines, now with the values ahead:

Row | Activity [1] | EC50 [2] | EC50 [3] | Activity ([2]; CHO-K1) | SMILES
31 | inactive | 70.8 nM |  |  | C=CCNc1ccc(C(=O)O)cn1
32 | inactive | 589 nM |  |  | COCCNc1ccc(C(=O)O)cc1[N+](=O)[O-]
33 | inactive | 1410 nM |  |  | COCC(C)Nc1ccc(C(=O)O)cc1[N+](=O)[O-] (centres undefined)
34 | inactive | 2040 nM |  |  | CN(C)c1ccc(C(=O)O)cc1[N+](=O)[O-]
35 | inactive | 100 nM |  |  | C=CCNc1ccc(C(=O)O)cc1[N+](=O)[O-]
36 | inactive | 389 nM |  |  | O=C(O)c1ccc(NC2CCCC2)nc1
37 | inactive | 3240 nM |  |  | COCC(C)Nc1ccc(C(=O)O)cn1 (centres undefined)
38 | inactive | 309 nM |  |  | O=C(O)c1ccc(NC2CCCC2)c([N+](=O)[O-])c1
39 | inactive | 229 nM |  |  | CCNc1ccc(C(=O)O)cc1[N+](=O)[O-]
40 |  | 1070 nM | 35 µM |  | CC(C)CNc1ccc(C(=O)O)cn1
41 | inactive | 309 nM |  |  | O=C(O)c1ccc(NCC2CCCO2)c([N+](=O)[O-])c1 (centres undefined)
42 | inactive | 309 nM |  |  | O=C(O)c1ccc(NC2CC2)c([N+](=O)[O-])c1
43 | inactive | 7410 nM |  |  | CNc1ccc(C(=O)O)cn1
44 | inactive | > 10000 nM |  |  | O=C(O)c1ccc(N2CCCC2)c([N+](=O)[O-])c1
45 | inactive | 151 nM |  |  | CCCCCNc1ccc(C(=O)O)cn1
46 | inactive | 72.4 nM |  |  | O=C(O)c1ccc(NC2CCC2)nc1
47 | inactive | 51.3 nM |  |  | CCCNc1ccc(C(=O)O)cn1
